Tests used:
[1] = target: Aryl hydrocarbon receptor nuclear translocator/Endothelial PAS domain-containing protein 1 (Homo sapiens, UniProt P27540+Q99814); assay: (§1) Inhibition of GST-tagged PAS-B domain of HIF-2alpha-Flag-tagged PAS-B domain of ARNT heterodimerization (unknown origin) by luminescence proximity assay; assay type: protein assay
[2] = target: Aryl hydrocarbon receptor nuclear translocator/Endothelial PAS domain-containing protein 1 (Homo sapiens, UniProt Q99814); assay: as §1; assay type: protein assay
Aryl hydrocarbon receptor nuclear translocator/Endothelial PAS domain-containing protein 1 (Homo sapiens, UniProt Q99814), sequence (P27540 whole entry, the tested form may be a part): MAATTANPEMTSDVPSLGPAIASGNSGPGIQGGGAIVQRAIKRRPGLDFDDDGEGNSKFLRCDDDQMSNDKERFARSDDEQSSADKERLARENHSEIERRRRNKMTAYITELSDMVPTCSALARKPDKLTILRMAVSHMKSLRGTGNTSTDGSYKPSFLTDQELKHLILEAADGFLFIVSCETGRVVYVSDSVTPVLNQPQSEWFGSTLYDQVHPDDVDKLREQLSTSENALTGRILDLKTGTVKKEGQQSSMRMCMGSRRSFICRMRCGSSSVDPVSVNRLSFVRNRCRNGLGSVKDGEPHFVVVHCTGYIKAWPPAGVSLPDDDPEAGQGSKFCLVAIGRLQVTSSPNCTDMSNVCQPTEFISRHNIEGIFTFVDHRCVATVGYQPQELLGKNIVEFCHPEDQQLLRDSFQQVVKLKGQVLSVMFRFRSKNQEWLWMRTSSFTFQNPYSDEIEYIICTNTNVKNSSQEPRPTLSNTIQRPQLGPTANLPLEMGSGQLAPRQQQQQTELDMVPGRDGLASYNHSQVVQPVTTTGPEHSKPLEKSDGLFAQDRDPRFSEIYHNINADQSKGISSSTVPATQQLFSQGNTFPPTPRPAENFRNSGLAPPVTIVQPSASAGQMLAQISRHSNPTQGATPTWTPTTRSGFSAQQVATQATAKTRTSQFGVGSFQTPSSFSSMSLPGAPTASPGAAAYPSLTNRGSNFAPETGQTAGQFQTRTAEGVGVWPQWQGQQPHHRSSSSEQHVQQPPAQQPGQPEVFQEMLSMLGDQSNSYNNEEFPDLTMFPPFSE
Aryl hydrocarbon receptor nuclear translocator/Endothelial PAS domain-containing protein 1 (Homo sapiens, UniProt Q99814), sequence (Q99814 whole entry, the tested form may be a part): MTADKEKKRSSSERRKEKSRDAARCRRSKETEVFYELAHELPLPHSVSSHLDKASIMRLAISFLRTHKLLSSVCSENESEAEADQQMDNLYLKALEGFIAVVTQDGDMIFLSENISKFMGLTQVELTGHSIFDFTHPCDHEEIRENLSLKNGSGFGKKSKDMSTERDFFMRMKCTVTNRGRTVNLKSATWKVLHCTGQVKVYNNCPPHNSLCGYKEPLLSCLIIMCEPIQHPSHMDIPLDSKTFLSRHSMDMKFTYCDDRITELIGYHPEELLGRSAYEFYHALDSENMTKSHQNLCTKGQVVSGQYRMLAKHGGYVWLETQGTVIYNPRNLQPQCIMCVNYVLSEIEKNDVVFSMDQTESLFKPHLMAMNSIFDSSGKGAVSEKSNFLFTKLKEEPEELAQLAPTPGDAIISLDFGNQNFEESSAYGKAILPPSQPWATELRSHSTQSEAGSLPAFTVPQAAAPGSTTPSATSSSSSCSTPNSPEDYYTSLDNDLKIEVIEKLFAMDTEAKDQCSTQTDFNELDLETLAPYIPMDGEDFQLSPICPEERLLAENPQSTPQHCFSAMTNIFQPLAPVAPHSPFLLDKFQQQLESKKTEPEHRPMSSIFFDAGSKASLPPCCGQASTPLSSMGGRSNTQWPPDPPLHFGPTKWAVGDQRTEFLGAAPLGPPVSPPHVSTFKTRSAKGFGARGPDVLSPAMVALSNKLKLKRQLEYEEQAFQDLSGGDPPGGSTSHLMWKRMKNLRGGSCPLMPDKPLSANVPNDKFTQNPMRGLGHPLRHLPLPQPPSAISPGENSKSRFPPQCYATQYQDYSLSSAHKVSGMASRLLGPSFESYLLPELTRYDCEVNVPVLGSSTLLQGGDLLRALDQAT

[3] = target: Endothelial PAS domain-containing protein 1 (Homo sapiens, UniProt Q99814); assay: Binding affinity to wild type PAS-B domain of HIF-2alpha (unknown origin) by isothermal calorimetry analysis
Endothelial PAS domain-containing protein 1, sequence (Q99814 whole entry, the tested form may be a part): as above

Aryl hydrocarbon receptor nuclear translocator/Endothelial PAS domain-containing protein 1 (Homo sapiens, UniProt P27540+Q99814), sequence (P27540 whole entry, the tested form may be a part): as the sequence (P27540 whole entry, the tested form may be a part) above
Aryl hydrocarbon receptor nuclear translocator/Endothelial PAS domain-containing protein 1 (Homo sapiens, UniProt P27540+Q99814), sequence (Q99814 whole entry, the tested form may be a part): as the sequence (Q99814 whole entry, the tested form may be a part) above

Row | Compound | IC50 [1] | IC50 [2] [nM] | Kd [3] [nM]
1 | O=[N+]([O-])c1c(Nc2ccc(Br)cc2)ccc2nonc12 | Not Active | – | –
2 | O=[N+]([O-])c1c(Nc2ccc(Cl)cc2)ccc2nonc12 | Not Active | – | –
3 | O=[N+]([O-])c1c(Nc2cc(F)cc(C(F)(F)F)c2)ccc2nonc12 | – | 430 | –
4 | O=[N+]([O-])c1c(Nc2cc(F)cc(F)c2)ccc2nonc12 | – | 2000 | 730
5 | O=[N+]([O-])c1c(Nc2ccc(Cl)c(Cl)c2)ccc2nonc12 | – | 120 | –
6 | O=[N+]([O-])c1c(Nc2cc(F)cc(Cl)c2)ccc2nonc12 | – | 100 | 90
7 | O=[N+]([O-])c1ccccc1Nc1cc(F)cc(Cl)c1 | Not Active | – | 4300
8 | O=[N+]([O-])c1c(Nc2cc(F)cc(Cl)c2)ccc2nn[nH]c12 | – | > 10000 | > 20000
9 | O=[N+]([O-])c1c(Nc2cc(F)cc(Cl)c2)ccc2[nH]cnc12 | – | < 5000 | –
10 | Nc1nc2ccc(Nc3cc(F)cc(Cl)c3)c([N+](=O)[O-])c2[nH]1 | – | > 2000 | –
11 | CN(c1cc(F)cc(Cl)c1)c1ccc2nonc2c1[N+](=O)[O-] | – | > 3000 | > 10000
12 | Fc1cc(Cl)cc(Nc2ccc3nonc3c2)c1 | Not Active | – | 3000
13 | Nc1c(Nc2cc(F)cc(Cl)c2)ccc2nonc12 | – | > 30000 | 6000
14 | CC(=O)Nc1c(Nc2cc(F)cc(Cl)c2)ccc2nonc12 | Not Active | – | –
15 | O=C(CCl)Nc1c(Nc2cc(F)cc(Cl)c2)ccc2nonc12 | Not Active | – | –
16 | O=C1C=CC(=O)N1c1c(Nc2cc(F)cc(Cl)c2)ccc2nonc12 | Not Active | – | –
17 | CNS(=O)(=O)c1c(Nc2cc(F)cc(Cl)c2)ccc2nonc12 | Not Active | – | –
18 | CN(C)S(=O)(=O)c1c(Nc2cc(F)cc(Cl)c2)ccc2nonc12 | Not Active | – | –
19 | O=[N+]([O-])c1c(NCc2ccc(Cl)cc2)ccc2nonc12 | Not Active | – | –
20 | O=[N+]([O-])c1c(NCc2ccc(F)cc2Cl)ccc2nonc12 | – | 330 | –
21 | O=[N+]([O-])c1c(NCc2c(F)cccc2Cl)ccc2nonc12 | Not Active | – | –
22 | O=[N+]([O-])c1c(NCc2cc(F)cc(Cl)c2)ccc2nonc12 | – | 2000 | –

Row | Compound | IC50 [1] | IC50 [2] [nM] | Kd [3] [nM]
23 | O=[N+]([O-])c1c(NCc2cc(F)ccc2F)ccc2nonc12 | – | > 10000 | –
24 | O=[N+]([O-])c1c(NCc2ccc(F)cc2C(F)(F)F)ccc2nonc12 | – | 500 | 540
25 | O=[N+]([O-])c1c(NCc2cc(F)ccc2C(F)(F)F)ccc2nonc12 | Not Active | – | –
26 | O=[N+]([O-])c1c(Sc2ccccc2)ccc2nonc12 | Not Active | – | –
27 | O=[N+]([O-])c1c(Sc2cccc(F)c2)ccc2nonc12 | Not Active | – | –
28 | O=[N+]([O-])c1c(Sc2cc(F)cc(Cl)c2)ccc2nonc12 | Not Active | – | –
29 | O=[N+]([O-])c1c(Oc2cc(F)cc(Cl)c2)ccc2nonc12 | Not Active | – | –
30 | COc1cccc(Nc2ccc3nonc3c2[N+](=O)[O-])c1 | Not Active | – | –
31 | O=[N+]([O-])c1c(Nc2ccc(F)cc2)ccc2nonc12 | Not Active | – | –
32 | O=[N+]([O-])c1c(Nc2cccc(Cl)c2)ccc2nonc12 | – | 180 | –
33 | O=[N+]([O-])c1c(Nc2cccc(C(F)(F)F)c2)ccc2nonc12 | – | 460 | –
34 | O=[N+]([O-])c1cccc(Nc2ccc3nonc3c2[N+](=O)[O-])c1 | – | 2800 | 3000
35 | O=[N+]([O-])c1c(Nc2cccc(F)c2)ccc2nonc12 | – | 2100 | 2200
36 | O=[N+]([O-])c1c(Nc2ccc(C(F)(F)F)cc2Cl)ccc2nonc12 | Not Active | – | –
37 | O=[N+]([O-])c1c(Nc2cccc(F)c2Cl)ccc2nonc12 | Not Active | – | –
38 | O=[N+]([O-])c1c(Nc2cccc(Cl)c2F)ccc2nonc12 | – | 760 | –
39 | O=[N+]([O-])c1c(Nc2ccc(F)c(Cl)c2)ccc2nonc12 | – | 170 | 400
40 | O=[N+]([O-])c1c(Nc2ccc(Cl)c(C(F)(F)F)c2)ccc2nonc12 | – | 90 | 170
41 | O=[N+]([O-])c1cc(Nc2ccc3nonc3c2[N+](=O)[O-])ccc1Cl | – | 400 | –
42 | O=[N+]([O-])c1c(NCc2ccccc2)ccc2nonc12 | – | > 5000 | –
43 | Cc1ccc(CNc2ccc3nonc3c2[N+](=O)[O-])cc1 | Not Active | – | –
